Assay results as given in patent US10085450B2, “Tetrazolinone compound and use thereof” (SUMITOMO CHEMICAL COMPANY, LIMITED, priority 2013, dated 2018).

What was measured:
[1] = system: common house mosquito (Culex pipiens pallens); experiment: whole plant or invertebrate; details: 24 h
Method: The test chemical solution (0.7 mL) was added to 100 mL of deionized water to thereby adjust the concentration of the active ingredient to 3.5 ppm. Twenty (20) heads of last instar larvae of common house mosquito (Culex pipiens pallens) were released in the solution. After 1 day, the number of the dead insects was counted.
Mortality was determined by the following equation. Mortality (%)=(number of dead insects/number of tested insects)×100

[2] = system: diamondback moth (Plutella xylostella); experiment: Test Example 20: diamondback moth larvae mortality on sprayed cabbage; format: in vivo; details: 120 h
Method: Cabbage (cultivar: GREEN BALL) was sowed and grown in a polyethylene cup until the third to fourth true leaf was developed. The test chemical solution was sprayed over the cabbage at a rate of 20 mL per cup. After drying the chemical solution, the cabbage cut from the base was disposed in a polyethylene cup (5.5 cm in diameter) with a filter paper laid on the bottom. Five (5) heads of third-instar larvae of diamondback moth (Plutella xylostella) were released and then a lid was put on the cup. After storage at 25° C. for 5 days, the number of the surviving insects was counted and mortality was calculated by the following equation.

[3] = system: tomato late blight fungus (Phytophthora infestans); format: in vivo; details: 500 ppm water dilution sprayed on tomato (PATIO) seedling; spores inoculated after air-drying
[4] = system: rice blast fungus (Magnaporthe grisea); format: in vivo; details: 500 ppm water dilution sprayed on rice (NIHONBARE); contact with infected rice seedling for 6 days

SMILES | mortality at 3.5 ppm [1] [%] | mortality at 500 ppm [2] [%] | also measured
Cc1cccc(-n2nnn(C)c2=O)c1COc1ccc(-c2ccc(Cl)cc2)s1 [present compound 15, 1-{2-[5-(4-chlorophenyl)thiophen-2-yloxymethyl]-3-methylphenyl}-4-methyl-1,4-dihydrotetrazol-5-one] | 95 |  | 
Cc1cccc(-n2nnn(C)c2=O)c1COc1nn(C)c(-c2ccc(Cl)cc2)c1C [present compound 29, 1-(2-{[1,4-dimethyl-5-(4-chlorophenyl)-1H-pyrazol-3-yloxy]methyl}-3-methylphenyl)-4-methyl-1,4-dihydrotetrazol-5-one] | 95 |  | 
Cc1cccc(-n2nnn(C)c2=O)c1COc1cc(-c2ccc(Cl)cc2)nn1C [present compound 4] |  | ≥ 80 | 
Cc1cccc(-n2nnn(C)c2=O)c1COc1csc(-c2ccccc2)n1 [present compound 10] |  | ≥ 80 | 
Cc1cccc(-n2nnn(C)c2=O)c1COc1c(C)c(-c2ccccc2)nn1C [present compound 8] |  |  | area of lesion spots on the treated plant relative to that on an untreated plant [3]: ≤ 30%; lesion areas on the treated plant with respect to the lesion area on the non-treated plant [4]: ≤ 30%
